A value given as a limit tells only on which side of the number the result lay.

Broadly, the IC50 is the midpoint of a concentration-inhibition curve. A higher IC50 goes with weaker potency in that assay.

human P2X7, sequence (Q99572 whole entry): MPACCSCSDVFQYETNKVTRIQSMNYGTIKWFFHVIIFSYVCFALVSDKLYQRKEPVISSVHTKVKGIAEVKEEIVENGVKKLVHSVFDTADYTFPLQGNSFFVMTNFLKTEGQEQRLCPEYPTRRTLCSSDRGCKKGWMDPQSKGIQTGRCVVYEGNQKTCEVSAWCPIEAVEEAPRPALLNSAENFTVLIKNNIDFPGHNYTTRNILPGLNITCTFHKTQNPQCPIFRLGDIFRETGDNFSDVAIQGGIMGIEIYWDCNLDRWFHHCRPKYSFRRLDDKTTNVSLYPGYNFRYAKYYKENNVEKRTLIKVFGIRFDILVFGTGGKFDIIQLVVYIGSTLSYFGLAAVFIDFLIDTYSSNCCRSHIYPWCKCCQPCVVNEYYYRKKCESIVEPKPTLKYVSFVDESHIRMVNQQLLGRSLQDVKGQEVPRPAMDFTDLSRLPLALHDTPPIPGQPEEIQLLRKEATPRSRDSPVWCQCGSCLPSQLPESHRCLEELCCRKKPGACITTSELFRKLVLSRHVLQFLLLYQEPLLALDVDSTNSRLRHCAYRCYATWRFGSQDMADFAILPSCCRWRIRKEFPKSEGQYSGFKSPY

The assay deals with human P2X7 (Homo sapiens (Human), UniProt Q99572). The assay is described as follows: Human P2X7 functional assay (Ca2+ influx, Fluo-4, FDSS). Type of assay: cell-based. The following applies: antagonistic activity with respect to the human P2X7 receptor; BzATP final concentration 80 microM. The protocol:
The ability of the 5,6,7,8-tetrahydroquinoline and 6,7-dihydro-5H-cyclopenta[b]pyridine derivatives of the formula (I) to inhibit the P2X7 channel was measured by Ca^2+ influx assay and electrophysiology assay described below.
Human P2X7 Functional Assay
The functional activity of compounds was determined by measuring changes in intracellular calcium concentration using a Ca^2+-sensitive fluorescent dye, Fluo-4 (Molecular Probes). The changes in fluorescent signal were monitored by the cell imaging technology by Hamamatsu Photonics's Functional Drug Screening System (FDSS). Increases in intracellular Ca^2+ concentration were readily detected upon activation with BzATP.
HEK293 cells stably expressing human P2X7 (GenBank accession number BC011913) carrying a C-terminal FLAG tag were grown in T225 flasks, in a 5% CO2 humidified incubator to about 80% confluence. Media composition consisted of Dulbecco's Modified Eagle Medium (high glucose), 10% fetal bovine serum ([…]), 100 units/[…] Penicillin, 100 microg/mL Streptomycin and 250 microg/mL Geneticine.
1. Plate-out HEK293-human P2X7 cells (40 microL medium containing 10,000 cells per well) into poly-D-lysine coated 384-well plates (Corning) at 24 h prior to assay.
2. Incubate at 37° C. in 5% CO2.
3. Incubate the plate at 37° C. in 5% CO2 for 1 h.
5. Test compounds were prepared at 100× the test concentration in DMSO by serial dilution with Biomek-FX liquid handling instrument. 33× diluted compound solutions in assay buffer were prepared in intermediate compound plate with Biomek-NX liquid handling instrument. A further 3× dilution occurred in below steps 6 and 7.
6. Add 20 microL of 33× diluted compound solutions into each well and leave the plate for 10 min under the dark at room temperature.
7. Measure activity by FDSS as follows: • Set the assay plate on the stacker of FDSS. • Start the detection of fluorescence intensity at 540 nm by 480 nm exicitation. • After 30 seconds, add 20 microL of assay buffer containing 240 microM BzATP (final concentration 80 microM).
IC50 values for compounds of the present invention were determined from 7-point dose-response studies. Curves were generated using the average of duplicate wells for each data point. Finally, the IC50 values are calculated with the best-fit dose curve determined by XLfit (ID Business Solutions Ltd.).
In turn, `CN(CCO)C[C@@]1(O)CC[C@](F)(C(=O)NCc2ccc(Cl)cc2Cl)c2cccnc21` [Example 278, (5R,8S)-N-(2,4-dichlorobenzyl)-5-fluoro-8-hydroxy-8-(((2-hydroxyethyl) (methyl)amino)methyl)-5,6,7,8-tetrahydroquinoline-5-carboxamide] came in with an IC50 of 1000 to 3000 nM.
Consider `Cc1ccc(Cl)c(CNC(=O)[C@]2(F)CC[C@H](O)c3ncccc32)c1F` [Example 216, (5S,8S)-N-(6-chloro-2-fluoro-3-methylbenzyl)-5-fluoro-8-hydroxy-5,6,7,8-tetrahydroquinoline-5-carboxamide], for which the IC50 fell in the range of 101 to 300 nM.
Regarding `O=C(NCc1c(Cl)ccc(Cl)c1Cl)[C@@]1(F)CC[C@@H](O)c2ncccc21` [Example 164, (5R,8R)-5-fluoro-8-hydroxy-N-(2,3,6-trichlorobenzyl)-5,6,7,8-tetrahydroquinoline-5-carboxamide], the IC50 lay within 101 to 300 nM.
As for `O=C(NCC(c1ccccc1)N1CCOCC1)[C@]1(F)CC[C@H](O)c2ncccc21` (mixture of isomers) [Example 235, (5S,8S)-5-fluoro-8-hydroxy-N-((rac)-2-morpholino-2-phenylethyl)-5,6,7,8-tetrahydroquinoline-5-carboxamide], the IC50 lay within 1000 to 3000 nM.
Compound `O=C(N[C@H]1C[C@@H]1c1ccccc1)[C@]1(F)CC[C@H](O)c2ncccc21` [Example 215, (5S,8S)-5-fluoro-8-hydroxy-N-((1S,2R)-2-phenylcyclopropyl)-5,6,7,8-tetrahydroquinoline-5-carboxamide] came in with an IC50 of 101 to 300 nM.
Under `O=C(NCc1c(F)cc(Cl)cc1Cl)[C@H]1CC[C@H](O)c2ncccc21` [Example 69, (5S,8S)-N-(2,4-dichloro-6-fluorobenzyl)-8-hy-droxy-5,6,7,8-tetrahydro-quinoline-5-carboxamide] stands 301 to 1000 nM; under `O=C(NCC1(c2ccc(Cl)cc2Cl)CCOCC1)[C@]1(F)CC[C@@](O)(CO)c2ncccc21` [Example 332, (5S,8S)-N-((4-(2,4-dichlorophenyl)tetrahydro-2H-pyran-4-yl)methyl)-5-fluoro-8-hydroxy-8-(hydroxymethyl)-5,6,7,8-tetrahydroquinoline-5-carboxamide], 1000 to 3000 nM; under `O=C(NCc1ccc(F)c(F)c1F)[C@@H]1CC[C@@H](O)c2ncccc21` [Example 93, (5R,8R)-8-hydroxy-N-(2,3,4-trifluorobenzyl)-5,6,7,8-tetrahydroquinoline-5-carboxamide], 1000 to 3000 nM.
In turn, `O=C(NCc1cc(F)c(F)c(F)c1)[C@]1(F)CC[C@H](O)c2ncccc21` [Example 200, (5S,8S)-5-fluoro-8-hydroxy-N-(3,4,5-trifluorobenzyl)-5,6,7,8-tetrahydroquinoline-5-carboxamide] had an IC50 of 50 to 100 nM.
To `O=C(NCc1ncc(C(F)(F)F)cc1Cl)[C@]1(F)CC[C@H](O)c2ncccc21` [Example 194, (5S,8S)-N-((3-chloro-5-(trifluoromethyl)pyridin-2-yl)methyl)-5-fluoro-8-hydroxy-5,6,7,8-tetrahydroquinoline-5-carboxamide] belongs less than 50 nM; to `O=C(NCc1ccc(F)c(F)c1F)[C@H]1CC[C@H](O)c2ncccc21` [Example 71, (5S,8S)-8-hydroxy-N-(2,3,4-trifluorobenzyl)-5,6,7,8-tetrahydroquinoline-5-carboxamide], 301 to 1000 nM.
In turn, `O=C1CC[C@@](F)(C(=O)NCc2ncc(Cl)cc2Cl)c2cccnc21` [Example 255, (S)-N-((3,5-dichloro-pyridin-2-yl)methyl)-5-fluoro-8-oxo-5,6,7,8-tetrahydroquinoline-5-carboxamide] registered an IC50 of 101 to 300 nM.
`O=C(NCc1ccc(Cl)cc1F)[C@@]1(F)CC[C@@H](O)c2ncccc21` [Example 145, (5R,8R)-N-(4-chloro-2-fluorobenzyl)-5-fluoro-8-hydroxy-5,6,7,8-tetrahydroquinoline-5-carboxamide]: the IC50 fell in the range of 101 to 300 nM.
`O=C(NCc1ccc(Cl)cc1)[C@]1(F)CC[C@H](O)c2ncccc21` [Example 210, (5S,8S)-N-(4-chlorobenzyl)-5-fluoro-8-hydroxy-5,6,7,8-tetrahydroquinoline-5-carboxamide] gave a 50% inhibitory concentration (IC50) of 101 to 300 nM.
Turning to `O=C(NCc1ccc(Cl)cc1Cl)[C@H]1CC[C@H](O)c2ncccc21` [Example 65, (5S,8S)-N-(2,4-dichloro-benzyl)-8-hydroxy-5,6,7,8-tetrahydroquinoline-5-carboxamide], the IC50 was in the range of 301 to 1000 nM.
Under `O=C(NCc1cc(F)c(F)cc1Cl)[C@@]1(F)CC[C@@H](O)c2ncccc21` [Example 162, (5R,8R)-N-(2-chloro-4,5-difluorobenzyl)-5-fluoro-8-hydroxy-5,6,7,8-tetrahydroquinoline-5-carboxamide] stands 101 to 300 nM; under `Cc1cc(Cl)cc(Cl)c1CNC(=O)C1(O)CCC(=O)c2ncccc21` (stereo not shown) [Example 15, N-(2,4-dichloro-6-methylbenzyl)-5-hydroxy-8-oxo-5,6,7,8-tetrahydro-quinoline-5-carboxamide], 301 to 1000 nM.
To `O=C(NCc1ccc(Cl)cc1C(F)(F)F)[C@@]1(F)CC[C@@H](O)c2ncccc21` [Example 156, (5R,8R)-N-(4-chloro-2-(trifluoromethyl)benzyl)-5-fluoro-8-hydroxy-5,6,7,8-tetrahydroquinoline-5-carboxamide] belongs 101 to 300 nM; to `O=C(NCc1ccc(F)c(Cl)c1)[C@]1(F)CC[C@H](O)c2ncccc21` [Example 188, (5S,8S)-N-(3-chloro-4-fluorobenzyl)-5-fluoro-8-hydroxy-5,6,7,8-tetrahydroquinoline-5-carboxamide], less than 50 nM; to `O=C(NCc1c(Cl)cccc1Cl)[C@@]1(F)CC[C@@H](O)c2ncccc21` [Example 138, (5R,8R)-N-(2,6-dichlorobenzyl)-5-fluoro-8-hydroxy-5,6,7,8-tetrahydroquinoline-5-carboxamide], 101 to 300 nM.
Consider `O=C(N[C@H]1CCc2ccccc21)[C@]1(F)CC[C@H](O)c2ncccc21` [Example 226, (5S,8S)-N-((S)-2,3-dihydro-1H-inden-1-yl)-5-fluoro-8-hydroxy-5,6,7,8-tetrahydroquinoline-5-carboxamide], for which the half-maximal inhibitory concentration (IC50) was 1000 to 3000 nM.
`O=C(NCc1ccc(F)cc1C(F)(F)F)[C@@]1(F)CC[C@@H](O)c2ncccc21` [Example 143, (5R,8R)-5-fluoro-N-(4-fluoro-2-(trifluoromethyl)benzyl)-8-hydroxy-5,6,7,8-tetrahydroquinoline-5-carboxamide] returned an IC50 of 301 to 1000 nM.
As for `COc1cccc(CNC(=O)[C@]2(F)CC[C@H](O)c3ncccc32)c1Cl` [Example 224, (5S,8S)-N-(2-chloro-3-methoxybenzyl)-5-fluoro-8-hydroxy-5,6,7,8-tetrahydroquinoline-5-carboxamide], the IC50 was 301 to 1000 nM.
For the compound `O=C(NCc1cccc(C(F)(F)F)c1Cl)[C@H]1CC[C@H](O)c2ncccc21` [Example 86, (5S,8S)-N-(2-chloro-3-(trifluoromethyl)benzyl)-8-hydroxy-5,6,7,8-tetra-hydroxyqinoline-5-carboxamide], the IC50 is 101 to 300 nM.
As to `O=C(NC1CC1c1ccc(Cl)cc1Cl)[C@]1(F)CC[C@@](O)(CO)c2ncccc21` (stereo partly drawn) [Example 331, (5S,8S)-N-((trans)-2-(2,4-dichlorophenyl)cyclopropyl)-5-fluoro-8-hydroxy-8-(hydroxymethyl)-5,6,7,8-tetrahydroquinoline-5-carboxamide], the IC50 lay within 50 to 100 nM.

Values taken from patent US11077100B2, “Tetrahydroquinoline derivatives as P2X7 receptor antagonists” (RaQualia Pharma Inc., priority 2017, dated 2021).
